Test results: US7834013B2, “Aminophenylcyclopropyl carboxylic acids and derivatives as agonists to GPR40” (GlaxoSmithKline LLC, priority 2003, dated 2010)
Structures can show the parent of a compound that is named as a salt.

These compounds were tested against T1, GPR40 (Homo sapiens, UniProt O14842) (assay: GPR40 SAR Primary Assay (Elk-1/Gal4-luc+ reporter, luciferase activity)). Details: stable GPR40 Elk-1/Gal4-luc+ CHO cell line, 5 hours incubation.
T1 construct: expressed in transfected cells
Assay type: cell-based
Description: An existing stable GPR40 Elk-1/Gal4-luc^+ CHO cell line generated by electroporation and functional cloning was used. Cells were maintained in a humidified incubator at 37° C./5% CO2 in complete media containing DMEM/F12 (Gibco, #11039-021), 5% FBS (Gibco, #16140-071) and 1% Glutamine (Gibco, #25030-081). Cell maintenance passages were made at 1:40 dilution every 3-4 days. Forty eight hours prior to assay, 15e6 cells were added to 200 ml of complete media then seeded into a 1200 cm^2-cell factory and returned to a humidified incubator at 37° C./5% CO2. 20 hours prior to assay, the growth media was removed and replaced with 200 ml of serum-free DMEM/F12 to quiesce background activity. At the time of assay, cells were harvested using non-enzymatic cell dissociation solution (Sigma, #C-5914), washed and counted. The 20 hour starve media was collected and used as condition media for cell assay plating. Cells were plated at a concentration of 10,000 cells/well in a total well volume of […] in black 96-well clear bottom polystyrene plates (CoStar, #3904). Test compounds were prepared as serial dilutions in 100% DMSO, then 1 ul was delivered to each well resulting in a final concentration of 1% DMSO. The plates were then returned to a humidified incubator at 37° C./5% CO2 for 5 hours. Following the incubation, the medium was replaced with 50 ul of a 1:1 mixture of SteadyGlo™ (Promega, #E2550) and dPBS containing 1 mM CaCl2 and 1 mM MgCl2. Plates were then sealed and subjected to dark adaptation at room temperature for 10 minutes. Luciferase activity was measured on a Packard TopCount™ microplate scintillation counter using 2 seconds per well count time.
Data analysis was performed using standard methods.
The Normalization Equation used was 100*(Unknown compound response−Background response)/(Agonist Max response−Background response).
The Curve Fit Function used was y=((Vmax*x^n)/(K^n+x^n))+Y2.
A percent max response and pEC50 were recorded for each compound. Although specific pEC50 values are given, these values should be considered exemplary. Those skilled in the art will appreciate the variability in performing and recording the biological activity assays that are herein described. The compounds of the present invention provide a pEC50 of at least 5.0.

T1 sequence (O14842 whole entry, the tested form may be a part): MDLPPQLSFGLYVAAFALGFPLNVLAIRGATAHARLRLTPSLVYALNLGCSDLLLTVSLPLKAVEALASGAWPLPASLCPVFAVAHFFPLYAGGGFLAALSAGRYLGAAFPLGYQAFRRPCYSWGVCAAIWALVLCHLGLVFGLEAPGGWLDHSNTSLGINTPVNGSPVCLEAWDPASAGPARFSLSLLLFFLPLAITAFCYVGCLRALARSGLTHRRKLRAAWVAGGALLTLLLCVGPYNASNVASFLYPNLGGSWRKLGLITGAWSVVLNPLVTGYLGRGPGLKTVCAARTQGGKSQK

SMILES	EC50 [nM]
O=C(O)C1CC1c1ccc(NCc2cccc(Oc3ccccc3)c2)cc1 (racemic) [Example 1, Racemic-(trans)-2-[4-({[3-(phenyloxy)phenyl]methyl}ammonium)phenyl]cyclopropanecarboxylic Acid Trifluoroacetate]	12.6
O=C(O)[C@@H]1C[C@H]1c1ccc(NCc2ccc(-c3ccccc3)cc2)cc1 (racemic) [Example 2, Racemic-(trans)-2-{4-[(4-biphenylylmethyl)amino]phenyl}cyclopropanecarboxylic Acid]	25.1
O=C(O)[C@@H]1C[C@H]1c1ccc(NCc2ccc(-c3ccccn3)cc2)cc1 (racemic) [Example 3, Racemic-(trans)-2-[4-({[4-(2-pyridinyl)phenyl]methyl}amino)phenyl]cyclopropanecarboxylic Acid]	1580
O=C(O)C1CC1c1ccc(NCc2cccc(Oc3ccc(Cl)c(Cl)c3)c2)cc1 (racemic) [Example 4, Racemic-(trans)-2-{4-[({3-[(3,4-dichlorophenyl)oxy]phenyl}methyl)ammonium]phenyl}-cyclopropanecarboxylic Acid Trifluoroacetate]	2
COc1ccc(Oc2cccc(CNc3ccc(C4CC4C(=O)O)cc3)c2)cc1 (racemic) [Example 5, Racemic-(trans)-2-(4-{[(3-{[4-(methyloxy)phenyl]oxy}phenyl)methyl]ammonium}phenyl)-cyclopropanecarboxylic Acid Trifluoroacetate]	20
O=C(O)C1CC1c1ccc(NCc2cccc(Oc3ccc(Cl)cc3)c2)cc1 (racemic) [Example 6, Racemic-(trans)-2-{4-[({3-[(4-chlorophenyl)oxy]phenyl}methyl)ammonium]phenyl}-cyclopropanecarboxylic Acid Trifluoroacetate]	15.8
CC(C)(C)c1ccc(Oc2cccc(CNc3ccc(C4CC4C(=O)O)cc3)c2)cc1 (racemic) [Example 7, Racemic-(trans)-2-(4-{[(3-{[4-(1,1-dimethylethyl)phenyl]oxy}phenyl)methyl]ammonium}phenyl)cyclopropanecarboxylic Acid Trifluoroacetate]	20
O=C(O)C1CC1c1ccc(NCc2cccc(Oc3cc(Cl)cc(Cl)c3)c2)cc1 (racemic) [Example 8, Racemic-(trans)-2-{4-[({3-[(3,5-dichlorophenyl)oxy]phenyl}methyl)ammonium]phenyl}-cyclopropanecarboxylic Acid Trifluoroacetate]	6.31
O=C(O)C1CC1c1ccc(NCc2cccc(Oc3cccc(C(F)(F)F)c3)c2)cc1 (racemic) [Example 9, Racemic-(trans)-2-(4-{[(3-{[3-(trifluoromethyl)phenyl]oxy}phenyl)methyl]ammonium}-phenyl)cyclopropanecarboxylic Acid Trifluoroacetate]	7.94
Cc1ccc(Oc2cccc(CNc3ccc(C4CC4C(=O)O)cc3)c2)cc1 (racemic) [Example 10, Racemic-(trans)-2-{4-[({3-[(4-methylphenyl)oxy]phenyl}methyl)ammonium]phenyl}-cyclopropanecarboxylic Acid Trifluoroacetate]	10
O=C(O)C1CC1c1ccc(NCc2cccc(OCc3ccccc3)c2)cc1 (racemic) [Example 11, Racemic-(trans)-2-{4-[({3-[(phenylmethyl)oxy]phenyl}methyl)ammonium]phenyl}-cyclopropanecarboxylic Acid Trifluoroacetate]	126
Cc1nc(Oc2ccccc2)sc1CNc1ccc(C2CC2C(=O)O)cc1 (racemic) [Example 12, Racemic-(trans)-2-[4-({[4-methyl-2-(phenyloxy)-1,3-thiazol-5-yl]methyl}ammonium)-phenyl]cyclopropanecarboxylic Acid Trifluoroacetate]	398
Cc1nc(-c2ccc(C(F)(F)F)cc2)sc1CNc1ccc([C@@H]2C[C@H]2C(=O)O)cc1 (racemic) [Example 13, Racemic-(trans)-2-{4-[({4-methyl-2-[4-(trifluoromethyl)phenyl]-1,3-thiazol-5-yl}methyl)amino]phenyl}cyclopropanecarboxylic Acid]	20
CC(C)c1nc(-c2ccc(C(F)(F)F)cc2)sc1CNc1ccc([C@@H]2C[C@H]2C(=O)O)cc1 (racemic) [Example 14, Racemic-(trans)-2-{4-[({4-isopropyl-2-[4-(trifluoromethyl)phenyl]-1,3-thiazol-5-yl}methyl)amino]phenyl}cyclopropanecarboxylic Acid]	15.8
O=C(O)[C@@H]1C[C@H]1c1ccc(NCc2ccc(-c3ccc(Cl)cc3)o2)cc1 (racemic) [Example 15, Racemic-(trans)-2-[4-({[5-(4-chlorophenyl)-2-furanyl]methyl}amino)phenyl]cyclopropanecarboxylic Acid]	126
O=C(O)[C@@H]1C[C@H]1c1ccc(NCc2ccc(OCc3ccccc3)cc2)cc1 (racemic) [Example 16, Racemic-(trans)-2-{4-[({4-[(phenylmethyl)oxy]phenyl}methyl)amino]phenyl}cyclopropanecarboxylic Acid trifluoroacetate]	63.1
Cc1nc(Oc2ccc(F)c(F)c2)sc1CNc1ccc([C@@H]2C[C@H]2C(=O)O)cc1 (racemic) [Example 17, Racemic-(trans)-2-{4-[({2-[(3,4-difluorophenyl)oxy]-4-methyl-1,3-thiazol-5-yl}methyl)amino]phenyl}cyclopropanecarboxylic Acid]	251
O=C(O)[C@@H]1C[C@H]1c1ccc(NCc2ccc(-c3ccc(C(F)(F)F)cc3)o2)cc1 (racemic) [Example 18, Racemic-(trans)-2-{4-[({5-[4-(trifluoromethyl)phenyl]-2-furanyl}methyl)amino]phenyl}cyclopropanecarboxylic Acid Trifluoroacetate]	251
O=C(O)[C@@H]1C[C@H]1c1ccc(NCc2ccc(-c3ccc(C(F)(F)F)cc3)s2)cc1 (racemic) [Example 19, Racemic-(trans)-2-{4-[({5-[4-(trifluoromethyl)phenyl]-2-thienyl}methyl)amino]phenyl}cyclopropanecarboxylic Acid Trifluoroacetate]	63.1
O=C(O)[C@@H]1C[C@H]1c1ccc(NCc2cc(-c3ccc(C(F)(F)F)cc3)co2)cc1 (racemic) [Example 20, Racemic-(trans)-2-{4-[({4-[4-(trifluoromethyl)phenyl]-2-furanyl}methyl)amino]phenyl}cyclopropanecarboxylic Acid]	158
O=C(O)[C@H]1C[C@@H]1c1ccc(NCc2cccc(Cc3ccccc3)c2)cc1 (racemic) [Example 21, Racemic-(trans)-2-[4-({[3-(phenylmethyl)phenyl]methyl}amino)phenyl]cyclopropanecarboxylic Acid Trifluoroacetate]	25.1
O=C(O)[C@H]1C[C@@H]1c1ccc(NCc2cccc(Oc3ccc([N+](=O)[O-])cc3)c2)cc1 (racemic) [Example 22, Racemic-(trans)-2-{4-[({3-[(4-nitrophenyl)oxy]phenyl}methyl)amino]phenyl}cyclopropanecarboxylic Acid Trifluoroacetate]	316
O=C(O)[C@H]1C[C@@H]1c1ccc(NCc2cccc(Sc3ccccc3)c2)cc1 (racemic) [Example 23, Racemic-(trans)-2-[4-({[3-(phenylthio)phenyl]methyl}amino)phenyl]cyclopropanecarboxylic Acid Trifluoroacetate]	31.6
Nc1ccc(Oc2cccc(CNc3ccc([C@H]4C[C@@H]4C(=O)O)cc3)c2)cc1 (racemic) [Example 24, Racemic-(trans)-2-{4-[({3-[(4-aminophenyl)oxy]phenyl}methyl)amino]phenyl}cyclopropanecarboxylic Acid Trifluoroacetate]	200
NC(=O)C1CC1c1ccc(NCc2ccc(-c3ccccc3)cc2)cc1 (racemic) [Example 35, Racemic-(trans)-2-{4-[(4-biphenylmethyl)amino]phenyl}cyclopropanecarboxamide]	20
NC(=O)[C@@H]1C[C@H]1c1ccc(NCc2ccc(-c3ccccn3)cc2)cc1 (racemic) [Example 36, Racemic-(trans)-2-[4-({[4-(2-pyridinyl)phenyl]methyl}amino)phenyl]cyclopropanecarboxamide]	251
Cc1nc(-c2ccc(C(F)(F)F)cc2)sc1CNc1ccc([C@@H]2C[C@H]2C(=O)NCc2ccncc2)cc1 (racemic) [Example 37, Racemic-(trans)-2-{4-[({4-methyl-2-[4-(trifluoromethyl)phenyl]-1,3-thiazol-5-yl}methyl)amino]phenyl}-N-(4-pyridinylmethyl)cyclopropanecarboxamide]	10
